Values joined by “and” are separate entries in the source; they are usually repeats but may differ in a detail not shown here. Identical values can stand only once. Toxic doses and inconclusive results are not listed.
Tested on: L1210 leukemia ip in BDF1 mice, survival T/C
Experiment: NCI In Vivo Anticancer Drug Screen. Data for tumor model L1210 Leukemia (intraperitoneal) in B6D2F1 (BDF1) mice
Conditions: endpoint: mean survival time, higher = longer survival
Summary of the method: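 Tumor cells were implanted, animals were treated, and survival was followed. The result divides the treated measurement by the vehicle-control measurement.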

`O=C(O)c1[nH]c(=O)[nH]c(=O)c1F` was tested. Which T/C (dose: 8.0 mg/kg/injection, schedule: Q01DX009 (ip), vehicle: saline) did it give?
The T/C was 188 % of control.

What about the T/C (dose: 10.0 mg/kg/injection, schedule: Q01DX009 (ip), vehicle: saline) of the same molecule?
Its T/C is 188 % of control and 206 % of control.

What about the T/C (dose: 10.5 mg/kg/injection, schedule: Q01DX001 (oral), vehicle: saline) of the same molecule?
The T/C was 111 % of control.

What about the T/C (dose: 11.0 mg/kg/injection, schedule: Q01DX015 (ip), vehicle: carboxymethylcellulose (CMC)) of the same molecule?
Its T/C is 214 % of control.

And the T/C (dose: 11.0 mg/kg/injection, schedule: Q01DX Z (ip), vehicle: methylcellulose (MC))?
The T/C was 109 % of control.

What about the T/C (dose: 12.0 mg/kg/injection, schedule: Q01DX006 (iv), vehicle: saline) of the same molecule?
Its T/C is 153 % of control.

What about the T/C (dose: 12.0 mg/kg/injection, schedule: Q01DX009 (ip), vehicle: saline) of the same molecule?
The T/C was 100 % of control and 101 % of control.

And the T/C (dose: 12.0 mg/kg/injection, schedule: Q01DX015 (im), vehicle: saline)?
Its T/C is 162 % of control.

And the T/C (dose: 12.0 mg/kg/injection, schedule: Q01DX015 (ip), vehicle: saline)?
Its T/C is 155 % of control.

And the T/C (dose: 12.0 mg/kg/injection, schedule: Q01DX015 (sc), vehicle: saline)?
Its T/C is 171 % of control.

What about the T/C (dose: 12.0 mg/kg/injection, schedule: Q## X024 (oral), vehicle: saline) of the same molecule?
The T/C was 154 % of control.

And the T/C (dose: 12.0 mg/kg/injection, schedule: Q## X040 (oral), vehicle: saline)?
The T/C was 87 % of control.

And the T/C (dose: 16.0 mg/kg/injection, schedule: Q01DX009 (ip), vehicle: saline)?
The T/C was 107 % of control.

And the T/C (dose: 16.0 mg/kg/injection, schedule: Q01DX015 (ip), vehicle: carboxymethylcellulose (CMC))?
Its T/C is 183 % of control.

What about the T/C (dose: 21.0 mg/kg/injection, schedule: Q01DX001 (oral), vehicle: saline) of the same molecule?
Its T/C is 106 % of control.

And the T/C (dose: 24.0 mg/kg/injection, schedule: Q01DX009 (ip), vehicle: saline)?
Its T/C is 110 % of control.

What about the T/C (dose: 24.0 mg/kg/injection, schedule: Q01DX009 (oral), vehicle: saline) of the same molecule?
Its T/C is 112 % of control.

What about the T/C (dose: 24.0 mg/kg/injection, schedule: Q01DX015 (im), vehicle: saline) of the same molecule?
The T/C was 120 % of control.

What about the T/C (dose: 24.0 mg/kg/injection, schedule: Q01DX015 (ip), vehicle: saline) of the same molecule?
The T/C was 114 % of control.

What about the T/C (dose: 24.0 mg/kg/injection, schedule: Q01DX015 (oral), vehicle: saline) of the same molecule?
Its T/C is 104 % of control.

What about the T/C (dose: 24.0 mg/kg/injection, schedule: Q## X024 (oral), vehicle: saline) of the same molecule?
The T/C was 156 % of control.

And the T/C (dose: 32.0 mg/kg/injection, schedule: Q04DX003 (ip), vehicle: saline)?
The T/C was 178 % of control.

And the T/C (dose: 48.0 mg/kg/injection, schedule: Q01DX006 (iv), vehicle: saline)?
The T/C was 183 % of control.

And the T/C (dose: 48.0 mg/kg/injection, schedule: Q01DX009 (ip), vehicle: saline)?
Its T/C is 88 % of control.

And the T/C (dose: 48.0 mg/kg/injection, schedule: Q01DX009 (oral), vehicle: saline)?
The T/C was 101 % of control.

What about the T/C (dose: 48.0 mg/kg/injection, schedule: Q01DX015 (im), vehicle: saline) of the same molecule?
The T/C was 95 % of control and 112 % of control.

What about the T/C (dose: 48.0 mg/kg/injection, schedule: Q01DX015 (ip), vehicle: carboxymethylcellulose (CMC)) of the same molecule?
The T/C was 120 % of control.

What about the T/C (dose: 48.0 mg/kg/injection, schedule: Q01DX015 (ip), vehicle: saline) of the same molecule?
The T/C was 101 % of control and 114 % of control.

What about the T/C (dose: 48.0 mg/kg/injection, schedule: Q01DX015 (oral), vehicle: saline) of the same molecule?
Its T/C is 97 % of control.

What about the T/C (dose: 48.0 mg/kg/injection, schedule: Q01DX015 (sc), vehicle: saline) of the same molecule?
The T/C was 106 % of control and 108 % of control.

And the T/C (dose: 48.0 mg/kg/injection, schedule: Q## X003 (oral), vehicle: saline)?
The T/C was 158 % of control.

And the T/C (dose: 48.0 mg/kg/injection, schedule: Q## X024 (oral), vehicle: saline)?
Its T/C is 109 % of control.

What about the T/C (dose: 64.0 mg/kg/injection, schedule: Q04DX003 (ip), vehicle: saline) of the same molecule?
Its T/C is 193 % of control.

And the T/C (dose: 84.0 mg/kg/injection, schedule: Q01DX001 (oral), vehicle: saline)?
Its T/C is 121 % of control.

And the T/C (dose: 96.0 mg/kg/injection, schedule: Q01DX006 (iv), vehicle: saline)?
Its T/C is 106 % of control.

And the T/C (dose: 96.0 mg/kg/injection, schedule: Q01DX015 (im), vehicle: saline)?
Its T/C is 86 % of control.

What about the T/C (dose: 96.0 mg/kg/injection, schedule: Q01DX015 (oral), vehicle: saline) of the same molecule?
Its T/C is 87 % of control.

And the T/C (dose: 96.0 mg/kg/injection, schedule: Q## X024 (oral), vehicle: saline)?
Its T/C is 98 % of control.

What about the T/C (dose: 192.0 mg/kg/injection, schedule: Q01DX006 (iv), vehicle: saline) of the same molecule?
The T/C was 104 % of control.

What about the T/C (dose: 192.0 mg/kg/injection, schedule: Q01DX015 (oral), vehicle: saline) of the same molecule?
Its T/C is 87 % of control.

And the T/C (dose: 356.0 mg/kg/injection, schedule: Q## X008 (oral), vehicle: saline)?
Its T/C is 111 % of control.

What about the T/C (dose: 384.0 mg/kg/injection, schedule: Q01DX006 (iv), vehicle: saline) of the same molecule?
The T/C was 86 % of control.

And the T/C (dose: 384.0 mg/kg/injection, schedule: Q## X003 (oral), vehicle: saline)?
Its T/C is 122 % of control.

What about the T/C (dose: 712.0 mg/kg/injection, schedule: Q01DX001 (oral), vehicle: saline) of the same molecule?
Its T/C is 150 % of control.

What about the T/C (dose: 768.0 mg/kg/injection, schedule: Q## X003 (oral), vehicle: saline) of the same molecule?
The T/C was 108 % of control.

And the T/C (dose: 1000.0 mg/kg/injection, schedule: Q01DX001 (oral), vehicle: saline)?
Its T/C is 160 % of control.

And the T/C (dose: 1000.0 mg/kg/injection, schedule: Q## X003 (oral), vehicle: saline)?
Its T/C is 103 % of control.

Source: PubChem BioAssay AID248 (DTP/NCI, 2004)
